Laboratory results published in patent US20200277571A1, “METHOD FOR AMPLIFYING CONE PHOTORECEPTORS OR ROD PHOTORECEPTORS USING DORSALIZATION SIGNAL TRANSMITTER OR VENTRALIZATION SIGNAL TRANSMITTER” (RIKEN, priority 2017, published 2020).

Test system: ALDH1A1 gene
Assay: Quantitative PCR of ALDH1A1 gene expression in retinal tissue
Type: cell-based, human
Protocol: [1] Control group (FIG. 2a, f, k, p); according to the method described in Example 1, culture was performed up to day 70 or day 75 from the start of suspension culture and without addition. [2]+BMP group (FIG. 2b, g, 1, q); 0.15 nM BMP4 was added from day 22 from the start of suspension culture to completion of suspension culture, and cultured up to day 70 or day 75 from the start of suspension culture. [3]+Cyclopamine-KAAD group (FIG. 2c, h, m, r); 500 nM Cyclopamine-KAAD was added from day 22 from the start of suspension culture to completion of the suspension culture, and cultured up to day 70 or day 75 from the start of suspension culture. [4]+LDN193189 group (FIG. 2d, i, n, s); 100 nM LDN193189 was added from day 22 from the start of suspension culture to completion of the suspension culture, and cultured up to day 70 or day 75 from the start of suspension culture. [5]+SAG group (FIG. 2e, j, o, t); 100 nM SAG was added from day 22 from the start of suspension culture to completion of the suspension culture, and cultured up to day 70 or day 75 from the start of suspension culture.
The expression level of ALDH1A1 gene was analyzed by quantitative PCR using the same cDNA as that used in Example 7. As a result, similar to that observed by immunostaining, the expression level of ALDH1A1 gene was promoted in +BMP4 group as compared to the Control (NUC) group on about day 40 from the start of suspension culture (FIG. 8-2, black bar (d40) in graph). […]
After extracting RNA from retinal tissue prepared in this way, cDNA was synthesized and the expression level of ALDH1A1 gene was analyzed by quantitative PCR. […] Furthermore, a retinal tissue prepared using 1.35 nM BMP4 was fixed with 4% para-formaldehyde, cryosections were prepared, and immunostaining using an antibody against GFP (fluorescence of GFP variant incorporated in CRX gene locus can be identified. That is, cells similar to CRX-positive cell can be identified), ALDH1A1, or DAPI staining for staining the nucleus was performed. […]

In the case of “BMP4: BMP protein; BMP signal transduction pathway agonist used as dorsalization signal transmitter”, the ALDH1A1 gene expression (1.35 nM BMP4 from day 22, day 70-75) was “significantly increased”, the “expression level of ALDH1A1 gene versus Control (NUC) group” value (about day 40, 0.15 nM BMP4 from day 22) was “promoted” and the ALDH1A1 gene expression (about day 70 (versus about day 40), 0.15 nM BMP4 from day 22) was “tendency of decrease”.
